Calls of active or inactive are those of the source.
Experiments:
Nonstructural protein 1 = Nonstructural protein 1 (Influenza A virus, UniProt Q194T2); assay type: functional, Influenza A virus (A/California/07/2009(H1N1))
HEK293 = assay: EBV LMP1 TES2 canonical NF-kB signalling blockers – cell-based, HEK293, luciferase, cherry-pick, dose response (AID 588343); assay type: functional; settings: Homo sapiens
INS1 = assay: INS-1E survival protection against cytokine death – cell-based, luminescence, retest, dose response (AID 449756); assay type: functional; settings: Rattus norvegicus;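 further: cell death triggered by IL-1 beta plus TNF-alpha plus IFN-gamma mixture; protective hits raise ATP signal compared with cytokine alone wells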
[1] = target: DNA dC->dU-editing enzyme APOBEC-3G (Homo sapiens, UniProt Q9HC16); assay: Dose Response confirmation of small molecule APOBEC3G DNA Deaminase Inhibitors via a fluorescence-based single-stranded DNA deaminase assay. [Related pubchem assays (depositor defined):AID493012, AID493028]; assay type: functional
Chain of DNA dC->dU-editing enzyme APOBEC-3G (Q9HC16 whole entry, the tested form may be a part): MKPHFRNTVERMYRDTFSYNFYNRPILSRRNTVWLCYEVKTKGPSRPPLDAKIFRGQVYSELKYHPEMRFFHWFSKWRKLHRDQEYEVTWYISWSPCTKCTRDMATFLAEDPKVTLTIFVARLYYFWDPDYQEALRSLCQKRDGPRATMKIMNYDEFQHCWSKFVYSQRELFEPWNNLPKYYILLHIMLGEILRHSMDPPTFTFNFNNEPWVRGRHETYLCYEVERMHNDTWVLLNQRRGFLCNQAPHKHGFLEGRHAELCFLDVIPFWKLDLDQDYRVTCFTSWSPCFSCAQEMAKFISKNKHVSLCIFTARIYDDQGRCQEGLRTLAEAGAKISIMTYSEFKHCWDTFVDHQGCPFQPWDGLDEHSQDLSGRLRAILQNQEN

[2] = target: T1, RNA-binding protein pos-1 (Caenorhabditis elegans, UniProt G5EF15); assay: disruptors of C. elegans POS-1 RNA interaction – biochemical, fluorescence polarization, dose response (AID 1964);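 further: purified POS-1 fused to maltose binding protein made in E. coli; potency of compounds blocking POS-1 binding to fluorescent RNA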
T1 sequence (G5EF15 whole entry): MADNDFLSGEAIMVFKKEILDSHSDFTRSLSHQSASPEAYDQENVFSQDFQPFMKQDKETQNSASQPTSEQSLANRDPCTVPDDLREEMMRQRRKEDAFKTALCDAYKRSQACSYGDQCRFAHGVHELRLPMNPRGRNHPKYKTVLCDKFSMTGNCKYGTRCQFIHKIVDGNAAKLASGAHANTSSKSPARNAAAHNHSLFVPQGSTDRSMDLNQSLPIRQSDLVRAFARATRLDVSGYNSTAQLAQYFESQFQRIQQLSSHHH

[3] = target: T2, Zinc finger protein mex-5 (Caenorhabditis elegans, UniProt Q9XUB2); assay: potency of MEX-5 RNA-binding blockers – biochemical, C. elegans, fluorescence polarization, dose response (AID 1960)
T2 sequence (Q9XUB2 whole entry): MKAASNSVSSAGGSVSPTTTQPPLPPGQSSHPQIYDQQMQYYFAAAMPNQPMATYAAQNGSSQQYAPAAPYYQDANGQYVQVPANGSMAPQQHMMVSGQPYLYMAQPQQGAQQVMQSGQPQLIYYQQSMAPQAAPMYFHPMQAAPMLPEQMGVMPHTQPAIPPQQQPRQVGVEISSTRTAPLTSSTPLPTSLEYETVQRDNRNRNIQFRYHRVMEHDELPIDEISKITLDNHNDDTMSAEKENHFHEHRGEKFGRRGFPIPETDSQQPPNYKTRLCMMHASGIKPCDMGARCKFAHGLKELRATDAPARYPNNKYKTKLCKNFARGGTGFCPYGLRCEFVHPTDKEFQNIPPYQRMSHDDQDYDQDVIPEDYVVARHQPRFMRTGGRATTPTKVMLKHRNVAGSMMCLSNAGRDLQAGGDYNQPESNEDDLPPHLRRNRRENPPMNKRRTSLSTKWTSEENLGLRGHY

[4] = target: T3, Voltage-gated N-type calcium channel alpha-1B subunit/Amyloid beta A4 precursor protein-binding family A member 1 (Homo sapiens, UniProt Q00975+Q02410); assay type: protein assay
T3 sequence (Q00975 whole entry): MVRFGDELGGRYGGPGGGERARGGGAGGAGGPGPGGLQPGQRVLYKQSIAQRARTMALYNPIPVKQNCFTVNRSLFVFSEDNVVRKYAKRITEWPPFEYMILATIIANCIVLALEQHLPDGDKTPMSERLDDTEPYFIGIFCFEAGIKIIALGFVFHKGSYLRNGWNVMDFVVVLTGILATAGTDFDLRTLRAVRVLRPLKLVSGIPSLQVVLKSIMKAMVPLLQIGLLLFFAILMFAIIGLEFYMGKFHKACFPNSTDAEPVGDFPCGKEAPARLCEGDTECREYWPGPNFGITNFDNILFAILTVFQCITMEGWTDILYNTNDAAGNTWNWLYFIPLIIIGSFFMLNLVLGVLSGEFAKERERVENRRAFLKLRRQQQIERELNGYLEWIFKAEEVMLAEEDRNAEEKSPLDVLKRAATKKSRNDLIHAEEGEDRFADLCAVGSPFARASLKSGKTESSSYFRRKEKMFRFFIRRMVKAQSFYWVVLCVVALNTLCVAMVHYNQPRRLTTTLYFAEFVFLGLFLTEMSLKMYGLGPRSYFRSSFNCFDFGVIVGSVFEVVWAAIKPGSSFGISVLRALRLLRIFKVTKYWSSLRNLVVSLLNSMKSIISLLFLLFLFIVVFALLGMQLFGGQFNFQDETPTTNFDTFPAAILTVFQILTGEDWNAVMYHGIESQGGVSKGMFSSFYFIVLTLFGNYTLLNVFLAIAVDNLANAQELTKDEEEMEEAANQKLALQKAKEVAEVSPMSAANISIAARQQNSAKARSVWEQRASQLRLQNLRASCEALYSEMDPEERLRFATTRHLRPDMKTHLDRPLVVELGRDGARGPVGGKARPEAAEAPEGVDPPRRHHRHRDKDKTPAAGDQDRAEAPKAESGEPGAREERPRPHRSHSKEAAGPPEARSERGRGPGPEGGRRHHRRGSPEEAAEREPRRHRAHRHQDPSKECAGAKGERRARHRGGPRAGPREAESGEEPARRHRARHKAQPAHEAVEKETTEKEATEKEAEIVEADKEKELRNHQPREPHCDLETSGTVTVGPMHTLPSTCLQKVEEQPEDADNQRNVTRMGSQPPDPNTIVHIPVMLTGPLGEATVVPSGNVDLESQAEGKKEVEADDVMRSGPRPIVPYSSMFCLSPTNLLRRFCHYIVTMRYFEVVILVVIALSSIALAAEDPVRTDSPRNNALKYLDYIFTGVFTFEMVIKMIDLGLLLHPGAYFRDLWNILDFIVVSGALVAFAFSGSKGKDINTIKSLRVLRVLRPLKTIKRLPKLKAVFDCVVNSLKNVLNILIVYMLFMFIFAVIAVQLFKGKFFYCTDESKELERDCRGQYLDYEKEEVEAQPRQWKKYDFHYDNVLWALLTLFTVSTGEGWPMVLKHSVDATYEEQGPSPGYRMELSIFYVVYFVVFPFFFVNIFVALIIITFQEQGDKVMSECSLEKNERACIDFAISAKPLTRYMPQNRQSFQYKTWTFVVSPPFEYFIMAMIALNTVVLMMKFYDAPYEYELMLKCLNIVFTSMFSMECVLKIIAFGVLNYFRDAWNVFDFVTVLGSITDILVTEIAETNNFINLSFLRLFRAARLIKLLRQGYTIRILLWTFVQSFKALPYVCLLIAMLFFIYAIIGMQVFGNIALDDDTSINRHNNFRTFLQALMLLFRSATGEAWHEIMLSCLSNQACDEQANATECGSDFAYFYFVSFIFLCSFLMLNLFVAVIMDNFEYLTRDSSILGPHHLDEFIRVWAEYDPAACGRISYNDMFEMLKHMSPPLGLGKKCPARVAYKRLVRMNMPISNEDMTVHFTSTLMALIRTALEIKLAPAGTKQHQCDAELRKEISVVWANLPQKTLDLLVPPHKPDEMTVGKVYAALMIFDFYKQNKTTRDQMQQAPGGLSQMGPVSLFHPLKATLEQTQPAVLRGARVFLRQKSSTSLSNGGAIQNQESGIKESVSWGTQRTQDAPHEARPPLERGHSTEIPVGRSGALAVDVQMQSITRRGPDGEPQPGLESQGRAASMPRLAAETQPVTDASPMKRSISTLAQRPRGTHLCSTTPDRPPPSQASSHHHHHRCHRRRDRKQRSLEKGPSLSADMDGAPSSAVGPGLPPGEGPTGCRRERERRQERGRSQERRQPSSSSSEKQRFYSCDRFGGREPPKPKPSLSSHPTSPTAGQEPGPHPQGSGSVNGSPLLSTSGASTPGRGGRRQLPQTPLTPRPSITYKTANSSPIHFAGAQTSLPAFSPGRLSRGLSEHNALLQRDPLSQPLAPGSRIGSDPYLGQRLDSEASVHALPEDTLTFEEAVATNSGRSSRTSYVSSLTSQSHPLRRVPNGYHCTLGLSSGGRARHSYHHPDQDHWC
T3 sequence (Q02410 whole entry): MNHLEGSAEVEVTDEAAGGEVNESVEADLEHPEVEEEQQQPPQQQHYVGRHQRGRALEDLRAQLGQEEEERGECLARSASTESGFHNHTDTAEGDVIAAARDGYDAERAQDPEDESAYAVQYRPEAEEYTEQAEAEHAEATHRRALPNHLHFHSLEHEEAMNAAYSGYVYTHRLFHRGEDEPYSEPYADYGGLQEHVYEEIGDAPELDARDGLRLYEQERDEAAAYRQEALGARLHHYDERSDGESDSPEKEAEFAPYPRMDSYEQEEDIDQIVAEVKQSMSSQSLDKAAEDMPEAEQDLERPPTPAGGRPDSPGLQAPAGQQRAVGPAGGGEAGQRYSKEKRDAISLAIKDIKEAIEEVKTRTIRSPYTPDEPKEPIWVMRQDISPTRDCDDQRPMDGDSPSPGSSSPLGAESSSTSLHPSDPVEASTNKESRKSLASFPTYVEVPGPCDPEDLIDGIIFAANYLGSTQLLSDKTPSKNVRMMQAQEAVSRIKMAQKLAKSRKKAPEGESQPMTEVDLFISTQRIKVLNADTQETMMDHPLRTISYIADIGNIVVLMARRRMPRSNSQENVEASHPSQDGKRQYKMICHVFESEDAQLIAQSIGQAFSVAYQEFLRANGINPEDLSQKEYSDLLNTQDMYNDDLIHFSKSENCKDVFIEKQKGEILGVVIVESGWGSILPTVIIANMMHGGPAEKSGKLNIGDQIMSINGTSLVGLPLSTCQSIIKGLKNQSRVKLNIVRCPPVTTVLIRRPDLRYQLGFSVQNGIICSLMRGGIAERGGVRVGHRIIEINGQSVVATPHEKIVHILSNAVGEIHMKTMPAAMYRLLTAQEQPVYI

[5] = target: T3, Voltage-gated N-type calcium channel alpha-1B subunit/Amyloid beta A4 precursor protein-binding family A member 1; assay type: protein assay; remark: listed apart in the source
P388/ADR = assay: cells; assay type: functional; settings: Mus musculus
SN12K1 = assay: cells; assay type: functional; settings: Homo sapiens
P388 = assay: cells; assay type: functional; settings: Mus musculus
Large T antigen = Large T antigen (Simian virus 40, UniProt P03070); assay type: functional, Betapolyomavirus macacae;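 further: Confirmatory-stage PubChem screen for compounds that inhibit SV40 T antigen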
Chain of Large T antigen (P03070 whole entry): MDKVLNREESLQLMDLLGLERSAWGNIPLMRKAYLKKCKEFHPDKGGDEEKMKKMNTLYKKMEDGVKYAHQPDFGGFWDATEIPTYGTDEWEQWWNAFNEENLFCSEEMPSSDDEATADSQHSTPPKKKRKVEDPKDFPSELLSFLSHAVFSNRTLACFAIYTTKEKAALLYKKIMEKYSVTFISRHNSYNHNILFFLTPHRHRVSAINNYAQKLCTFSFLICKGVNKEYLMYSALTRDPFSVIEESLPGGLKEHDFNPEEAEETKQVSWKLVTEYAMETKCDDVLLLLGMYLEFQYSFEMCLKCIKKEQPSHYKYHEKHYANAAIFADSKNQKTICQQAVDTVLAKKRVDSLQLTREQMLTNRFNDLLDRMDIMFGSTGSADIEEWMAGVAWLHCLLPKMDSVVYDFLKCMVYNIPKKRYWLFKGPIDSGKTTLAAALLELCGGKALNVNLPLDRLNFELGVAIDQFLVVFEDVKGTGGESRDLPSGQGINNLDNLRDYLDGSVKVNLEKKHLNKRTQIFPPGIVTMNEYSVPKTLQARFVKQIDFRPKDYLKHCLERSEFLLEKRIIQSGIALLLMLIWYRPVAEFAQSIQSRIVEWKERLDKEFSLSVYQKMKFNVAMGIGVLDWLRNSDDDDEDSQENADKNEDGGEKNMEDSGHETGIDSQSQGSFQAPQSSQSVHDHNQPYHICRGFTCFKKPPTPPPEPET

Prothrombin = Prothrombin (Homo sapiens, UniProt P00734); assay: Thrombin 1536 HTS Dose Response Confirmation. [Related pubchem assays: 1046 (Thrombin 1536 HTS; hits were confirmed in this assay)]; assay type: functional
[6] = target: Peroxisome proliferator-activated receptor gamma/Nuclear receptor corepressor 2 (Homo sapiens, UniProt P37231+Q9Y618); assay: Counterscreen for NR2E3 inverse agonists: TR-FRET-based biochemical high throughput dose response assay to identify inverse agonists of the interaction between peroxisome proliferator-activated receptor gamma (PPARg) and nuclear receptor co-repressor 2 (NCOR2).; assay type: functional
[7] = target: Photoreceptor-specific nuclear receptor (Homo sapiens, UniProt Q9Y5X4); assay: ligands suppressing NR2E3 nuclear receptor activity – biochemical, TR-FRET, dose response (AID 463256); assay type: functional
Chain of Photoreceptor-specific nuclear receptor (Q9Y5X4 whole entry): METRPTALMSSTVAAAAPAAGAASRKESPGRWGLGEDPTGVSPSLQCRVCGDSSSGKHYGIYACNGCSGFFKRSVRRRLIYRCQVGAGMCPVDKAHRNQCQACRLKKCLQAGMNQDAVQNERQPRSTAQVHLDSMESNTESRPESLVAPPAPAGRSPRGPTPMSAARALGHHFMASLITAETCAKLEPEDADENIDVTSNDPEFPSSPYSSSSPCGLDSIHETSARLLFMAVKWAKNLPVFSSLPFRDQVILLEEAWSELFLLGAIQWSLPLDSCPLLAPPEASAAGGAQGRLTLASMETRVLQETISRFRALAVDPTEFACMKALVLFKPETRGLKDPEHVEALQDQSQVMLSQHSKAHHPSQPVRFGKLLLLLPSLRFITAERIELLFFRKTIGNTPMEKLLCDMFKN

[8] = growth inhibition of yeast DHODH-expressing 3D7 parasites – SYBR Green, dry powder samples, dose response (AID 1159570); assay type: functional, cell-based;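 further: parasite growth measured after 72 hours of compound exposure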
[9] = P. falciparum Dd2 growth inhibitors, dose response, SYBR Green, cherry-picked samples (AID 1159567); assay type: functional, cell-based
[10] = Dd2 malaria parasite growth inhibition potency – SYBR Green, dry powder samples, dose response (AID 1159566); assay type: functional, cell-based;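 further: potency for growth inhibition with lower SYBR green DNA signal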
[11] = growth inhibition of PfATP4-mutant resistant parasites – NITD609-resistant line, SYBR Green, dry powder, dose response (AID 1159571); assay type: functional, cell-based;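 further: parasites synchronized at ring stage by sorbitol before testing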
Vero = assay: viability of Vero cells under compound – cytotoxicity control for flavivirus capping enzyme inhibitors (AID 588742); assay type: functional; settings: Chlorocebus sabaeus
Genome polyprotein = Genome polyprotein (dengue virus type 2, UniProt P29990); assay: flavivirus cap methylation enzyme inhibition – biochemical, confirmation dose response, primary screen (AID 588689); assay type: functional
[12] = target: T4, Polyadenylate-binding protein 1 (Homo sapiens, UniProt P11940); assay: MLLE binding blockers, Cy5 peptide tracer – biochemical, fluorescence polarization, Cy5-PAM2 peptide, secondary, miRNA deadenylation inhibitor project, dose response (AID 602260); assay type: functional; settings: read-out: IC50_Mean
[13] = target: T4, Polyadenylate-binding protein 1; assay: MLLE domain peptide-binding blockers, IC50 – biochemical, fluorescence polarization, FITC-PAM2 peptide, dose response (AID 602259); assay type: functional; settings: read-out: IC50_Mean
SUMO-activating enzyme [14] = target: T5, SUMO-activating enzyme (Homo sapiens, UniProt Q9UBT2); assay: blockers of UBC9-mediated SUMO conjugation – biochemical, AlphaScreen, SUMOylation inhibitor project, confirmation (AID 2018); assay type: functional
SUMO-activating enzyme [15] = target: T5, SUMO-activating enzyme; assay: blockers of SAE1/SAE2–UBC9 SUMO transfer – biochemical, HTRF, uHTS, primary screen (AID 2006); assay type: protein-complex assay
Beta-galactosidase = Beta-galactosidase (Escherichia coli, UniProt Q8VNN2); assay: Dose response counterscreen for EBI2 assay utilizing the enzyme, b-galactosidase.; assay type: functional
[16] = target: T6, Calpain-2 catalytic subunit (Sus scrofa, UniProt P43367); assay: m-calpain protease blockers, concentration series – biochemical, fluorogenic peptide substrate, dose response (AID 1420); assay type: functional
T6 sequence (P43367 whole entry): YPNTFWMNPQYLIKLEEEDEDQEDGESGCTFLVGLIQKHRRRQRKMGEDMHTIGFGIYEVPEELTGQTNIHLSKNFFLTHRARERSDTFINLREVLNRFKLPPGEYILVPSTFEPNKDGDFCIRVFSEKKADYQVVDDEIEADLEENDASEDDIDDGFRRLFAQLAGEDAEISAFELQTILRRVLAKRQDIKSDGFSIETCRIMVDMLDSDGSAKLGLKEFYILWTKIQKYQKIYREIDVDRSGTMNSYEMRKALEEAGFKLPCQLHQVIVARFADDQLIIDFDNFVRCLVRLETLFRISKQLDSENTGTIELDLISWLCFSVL

Chain of Nonstructural protein 1 (Q194T2 whole entry): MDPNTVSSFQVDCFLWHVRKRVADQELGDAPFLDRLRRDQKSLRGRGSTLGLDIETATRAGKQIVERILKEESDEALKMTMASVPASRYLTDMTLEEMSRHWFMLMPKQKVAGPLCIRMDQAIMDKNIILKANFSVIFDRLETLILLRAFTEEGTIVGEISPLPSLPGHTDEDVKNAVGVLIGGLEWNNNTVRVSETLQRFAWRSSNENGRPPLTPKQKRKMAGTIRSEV

COc1ccc(Cc2nnc(N/N=C/c3ccc(O)cc3)nc2O)cc1OC
IC50 (Nonstructural protein 1): 1.19 µM (active)
AC50 (HEK293): 4.42 µM (active)
AC50 (INS1): 0.946 µM (active)

CCOC(=O)c1sc(N/N=C/c2ccccc2)nc1C
IC50 [1]: 40.4 µM (active)

O=C1C([N+](=O)[O-])=C(O)c2cccc3cccc1c23
EC50 [2]: 12.6 µM (active)
EC50 [3]: 9.23 µM (active)
IC50 [4]: > 56.8 µM (not active)
IC50 [5]: 31.2 µM (active)

CC(=O)N1CCN(c2ccc(NCc3ccc(-c4ccc(Br)cc4)o3)cc2)CC1
IC50 (Nonstructural protein 1): 41.1 µM (active)

COc1ccc(OCC(C)(C)O)cc1
GI50 (P388/ADR): 1.31 µM (inactive)
GI50 (SN12K1): > 100 µM (inactive)
GI50 (P388): 38.2 µM (inactive)

O=C1C(NS(=O)(=O)c2ccccc2)=C(N2CCN(c3ccc(F)cc3)CC2)C(=O)c2ccccc21
IC50 (Nonstructural protein 1): 18.1 µM (active)

c1ccc(-c2csc(NNC3=NCCCCC3)n2)cc1
IC50 (Large T antigen): 61.1 µM (active)

Cc1ccc(C)c(SCC(=O)OCC(=O)Nc2ccc(S(=O)(=O)N3CCOCC3)cc2)c1
IC50 (Prothrombin): 5.72 µM (active)

COc1cc(NC(=O)CSc2nc(C3CC3)nc3ccccc23)cc(OC)c1
IC50 [6]: 5.56 µM (active)
IC50 [7]: 5.35 µM (active)

COc1ccc2c3c(n(C)c2c1)[C@@H](CO)N(C(=O)c1ccccc1)CC31CCN(C(=O)c2ccccc2)CC1
AC50 [8]: 2.28 µM (active)
AC50 [9]: 2.56 µM (active)
AC50 [10]: 1.04 µM (active)
AC50 [11]: 1.55 µM (active)

S=P1(N2CCCCC2)Oc2ccc3ccccc3c2-c2c(ccc3ccccc23)O1
GI50 (P388/ADR): > 100 µM (inactive)
GI50 (SN12K1): > 61.8 µM (inactive)
GI50 (P388): 48.4 µM (inactive)

O=C1C(Cl)=CC(=Nc2ccc(O)cc2)C=C1Cl
CC50 (Vero): 37.7 µM (active)
IC50 (Genome polyprotein): 7.02 µM (active)
IC50 [12]: > 66 µM (inactive)
IC50 [13]: > 66 µM (inactive)

O=C(Nc1ccc2oc(-c3cccc4ccccc34)nc2c1)c1nnc[nH]1
IC50 (SUMO-activating enzyme [14]): 3.45 µM (active)
IC50 [4]: 2.92 µM (active)
IC50 (SUMO-activating enzyme [15]): 11.8 µM (active)
IC50 [5]: > 50 µM (inactive)

C=CCNC(=O)/C(C#N)=C\c1cc(Cl)c(O)c(OCC)c1
IC50 (Prothrombin): > 50 µM (not active)

COc1ccc(S(=O)(=O)N(C(=O)c2ccco2)c2cc3sc(=O)oc3c3ccccc23)cc1
CC50 (Vero): 27.7 µM (active)
AC50 (INS1): 4.56 µM (active)

O=C(COc1ccc(Br)cc1)N1CCN(c2ncccn2)CC1
IC50 [6]: 8.99 µM (active)
IC50 [7]: 10.1 µM (not active)
IC50 (Beta-galactosidase): > 80 µM (inactive)

COc1cc(/C=N/NC(=O)c2ccc3c(c2)OCCO3)cc(Cl)c1O
IC50 (Large T antigen): 22.7 µM (active)

O=C(COC(=O)Cn1cnc2ccccc2c1=O)Nc1cc(Cl)ccc1[N+](=O)[O-]
IC50 (Prothrombin): 3.35 µM (active)

COc1ccc(-n2nc3c(N4CCC(C(=O)NCc5ccccc5C)CC4)nnc(C)c3c2C)cc1
IC50 [6]: 1.44 µM (active)
IC50 [7]: 2.01 µM (active)

O=S1(=O)CS(=O)(=O)OCCO1
GI50 (P388/ADR): 7.36 µM (inactive)
GI50 (SN12K1): 28.6 µM (inactive)
GI50 (P388): 10.8 µM (inactive)

CC(=O)N(c1ccc2oc(=O)sc2c1)S(=O)(=O)c1cccs1
IC50 (Large T antigen): 40.1 µM (active)

Cc1ccc(N2Cc3c(ccc4ccccc34)OP2(=O)Oc2ccc(Cl)c(C)c2)cc1 (centres undefined)
GI50 (P388/ADR): 7.45 µM (inactive)
GI50 (SN12K1): > 77.8 µM (inactive)
GI50 (P388): 4.75 µM (inactive)

COc1ccc(NC2CCCN(C(=O)c3ccc(OC)cc3OC)C2)cc1 (centres undefined)
IC50 (Large T antigen): 82.4 µM (active)

COCCn1c(SCC(=O)Nc2ccc(C(N)=O)cc2)nc2c3ccccc3nc-2c1O
IC50 [4]: 6.77 µM (active)
IC50 [5]: > 50 µM (inactive)

Cc1ccc(Nc2c([N+](=O)[O-])ccc3c2=NC2(CCCCC2)N=3)cc1
IC50 [16]: 1.58 µM (not active)
IC50 (Nonstructural protein 1): 17.4 µM (active)
IC50 [12]: > 66 µM (inactive)
IC50 [13]: > 66 µM (inactive)

O=C(c1ccco1)n1nc(-c2cccnc2)nc1NCc1ccco1
IC50 (Prothrombin): 0.134 µM (active)

Cc1c(Br)ccc(NC(=O)Cn2nc(-c3cccs3)ccc2=O)c1C
IC50 [6]: 7.73 µM (active)
IC50 [7]: 7.42 µM (active)
